Reference: patent publication US9611514B2, “Method for selection of hDIS3 PIN domain inhibitors and use of hDIS3 PIN domain inhibitors for cancer treatment” (INSTYTUT BIOCHEMII I BIOFIZYKI POLSKIEJ AKADEMII NAUK, priority 2013, dated 2017)

Columns and labels:
[1] = test system: yeast harboring G833R mutation (dis3-G833R); experiment: Yeast growth assay, serial dilutions spotted on YPD plates; assay type: cell-based, S. cerevisiae; conditions: 1 mM in YPD plates, 30° C., 60 hours
Description: (§1) FIG. 12. […] Serial dilutions of indicated yeast strains were spotted on YPD plates and YPD plates with 2-hydroxy-(4H)-isoquinoline-1,3-dione (at 1 mM concentration) and incubated at 30° C. for 60 hours.
(§2) Yeast strains described above were grown in complete YPD medium at 30° C. overnight until OD600 reached 0.2 before spotting serial dilutions onto YPD plates. Cell growth was analyzed after 60 h of incubation at 25° C., 30° C. or 37° C. Analysis of viability for strains harboring mutations in both PIN and RNB domains of Dis3 was carried out by sporulation of ADZY713 and ADZY716 diploid strains, followed by tetrad dissection.
(§3) Yeast strains harboring G833R or R847K mutations, obtained in Example II were used for growth assays. Serial dilutions of indicated yeast strains were spotted on YPD plates and YPD plates with 2-hydroxy-(4H)-isoquinoline-1,3-dione (at 1 mM concentration) and incubated at 30° C. for 60 hours.

[2] = test system: yeast harboring R847K mutation (dis3-R847K); experiment: as above; assay type: cell-based, S. cerevisiae; conditions: 1 mM in YPD plates, 30° C., 60 hours
Description: as §1, §2, §3

[3] = target: T1, isolated PIN domain of hDIS3 (Homo sapiens, UniProt Q9Y2L1); experiment: hDIS3 PIN domain endonucleolytic activity assay (RNA substrate digestion, denaturing PAGE, fluorimaging); assay type: biochemical; conditions: 80 μM concentration; 5′ fluoresceine-labeled ss17-(A)34 substrate; 1 mM manganese
T1 construct: made in house
T1 sequence (Q9Y2L1 1-217): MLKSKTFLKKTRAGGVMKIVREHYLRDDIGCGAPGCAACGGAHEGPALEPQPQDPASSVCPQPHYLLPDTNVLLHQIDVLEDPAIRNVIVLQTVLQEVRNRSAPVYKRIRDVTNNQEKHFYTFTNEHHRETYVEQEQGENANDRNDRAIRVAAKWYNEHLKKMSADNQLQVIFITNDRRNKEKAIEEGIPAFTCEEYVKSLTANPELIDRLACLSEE
Description: FIGS. 11A-B. 2-hydroxy-(4H)-isoquinoline-1,3-dione (AClLAHYL) inhibits the endonucleolytic activity of isolated PIN domain of hDIS3. A) SDS-PAGE analysis of the recombinant hDIS3 PIN domain; B) Activity assay. 5′ fluoresceine-labeled ss17-(A)34 substrate was incubated in a buffer containing 1 mM manganese with recombinant hDIS3 PIN domain in the presence or absence of 2-hydroxy-(4H)-isoquinoline-1,3-dione. A control reaction was also performed, which contained the inhibitor but lacked any added protein. Reactions were terminated at the indicated time points, followed by denaturing PAGE and fluorimaging.
In vitro enzymatic assays of hDIS3 exoribonucleolytic activity were performed in 10 mM Tris-HCl, pH 8.0; 75 mM NaCl; 1 mM 2-mercaptoethanol, 100 μM MgCl2. Protein concentration was 0.1 μM, while substrate concentration was 0.2 μM or 2 μM for duplex and unstructured RNA molecules, respectively. For gel-based analyses, reactions were performed at 37° C. for the indicated times and then terminated by formamide loading dye Reaction products were resolved in denaturing 20% polyacrylamide, 8 M urea, 1xTBE gels. In the case of TLC-based experiment, samples were collected by mixing aliquots of the reaction mixtures with 1 μl of 0.5 M EDTA and subsequently analysed by running them on PEI-cellulose plates (Schleicher & Schuell) in 0.5 M LiCl/1M formic acid, using non-radioactive UMP as a marker. […]

O=C1Cc2ccccc2C(=O)N1O [2-hydroxy-(4H)-isoquinoline-1,3-dione]
growth inhibition of yeast harboring G833R mutation [1]: complete growth inhibition
growth inhibition of yeast harboring R847K mutation [2]: complete growth inhibition
inhibition of the endonucleolytic activity of human DIS3 PIN domain [3]: efficiently inhibited
